US10987317B2, “Inhibition of glutaminase C” (Cornell University, priority 2009, dated 2021)

Legend:
SKBR3 cells = assay: Breast cancer cell soft agar colony formation and growth; assay type: cell-based, human
Experimental: (§1) FIGS. 2A-G illustrate effects of 968 on the transforming activity of constitutively active Rho GTPases and human breast cancer cells. […] Cells are scored after 14 days and plotted as the percentage of the total number of colonies greater than […] in diameter. Data represent the average of 3 experiments (±s.d.). […] Data represent the average of 3 experiments (±s.d.). […] Data represent the average of 3 experiments (±s.d.). […] After 24 hours at 37° C. the migratory cells are fixed, stained with GIEMSA, and counted. Data represent the average of 3 experiments (±s.d.). […] Data represent the average of 3 experiments (±s.d.). […] Data represent the average of 3 experiments (±s.d.). […] Data represent the average of 3 experiments (±s.d.).
(§2) 100%=620 moles of glutamine hydrolyzed per minute per mole of enzyme. Data represent the average of 3 experiments (±s.d.). […] Following precipitation of the beads and re-suspension, the samples are analyzed by Western blotting with anti-V5 antibody. […] Data represent the average of 3 experiments (±s.d.). […] Data represent the average of 3 experiments (±s.d.). […] Data represent the average of 3 experiments (±s.d.). FIG. 3E NIH 3T3 cells transiently expressing Dbl are assayed for focus formation in the presence of 10 μM 968 alone or together with […] dimethyl α-ketoglutarate. […] 100%=680 nM glutamine hydrolyzed per minute per 10^5 cells. Data are the average of 3 experiments (=s.d.). […] 100%=750 nM glutamine hydrolyzed per minute per 10^5 cells. Data represent the average of 3 experiments (±s.d.).

[1] = target: T1, E. coli-expressed mouse ortholog of human GAC (Mus musculus, UniProt D3Z7P3); assay: Recombinant glutaminase activity assay; assay type: biochemical
T1 construct: A plasmid encoding mouse GAC (residues 128-603) was cloned into the pET28a vector; His-tag (N, cleaved yes); made in house; host or cells: E. coli (pET28a)
T1 sequence (D3Z7P3 128-603 isoform D3Z7P3-2): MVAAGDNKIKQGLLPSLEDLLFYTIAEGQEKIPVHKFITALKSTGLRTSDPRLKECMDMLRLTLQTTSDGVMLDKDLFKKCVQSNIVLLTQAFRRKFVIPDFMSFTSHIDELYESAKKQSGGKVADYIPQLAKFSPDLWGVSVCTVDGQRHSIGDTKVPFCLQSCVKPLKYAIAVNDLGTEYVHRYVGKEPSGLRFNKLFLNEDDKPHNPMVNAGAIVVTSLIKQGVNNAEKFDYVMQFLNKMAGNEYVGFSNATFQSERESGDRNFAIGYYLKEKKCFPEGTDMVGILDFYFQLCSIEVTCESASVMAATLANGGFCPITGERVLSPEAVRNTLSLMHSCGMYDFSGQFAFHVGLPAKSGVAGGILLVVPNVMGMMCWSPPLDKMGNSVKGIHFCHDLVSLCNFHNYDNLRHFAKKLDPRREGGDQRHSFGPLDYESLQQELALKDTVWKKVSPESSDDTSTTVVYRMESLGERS
Experimental: as §2
The activity of the E. coli-expressed recombinant mouse ortholog of human GAC are assayed in the presence of 0 (●), 10 (∇) or 20 (▪) μM 968 and inorganic phosphate in the form of dipotassium hydrogen phosphate. […] The data are plotted as GA activity as function of varying concentrations of glutamine or inorganic phosphate. The data are the average of 3 experiments and are plotted as mean±SEM.
Glutaminase activity assays were performed on recombinant enzyme as previously described (Kenny et al., “Bacterial Expression, Purification and Characterization of Rat Kidney-Type Mitochondrial Glutaminasc,” Protein Expr. Purif 31:140-148 (2003), which is hereby incorporated by reference in its entirety). A plasmid encoding mouse GAC (residues 128-603) was cloned into the pET28a vector and the protein was expressed with an N-terminal histidine (His)-tag. The tag was cleaved using thrombin and the protein was further purified by anion-exchange and gel-filtration chromatography. […] The reaction mixture was incubated at room temperature for 45 minutes and the absorbance at 340 nm was recorded for each sample against a water blank. The absorbance of the sample with just the cocktail mixture was subtracted from each reading to calculate the activity of the enzyme.

MDA-MB231 cells = assay: Breast cancer cell soft agar colony formation and growth; assay type: cell-based, human; settings: 10 μM
Experimental: as §1

CN(C)c1ccc(C2Nc3ccc4ccccc4c3C3=C2C(=O)CC(C)(C)C3)cc1Br (stereo not shown) [Compound 968, 5-[3-bromo-4-(dimethylamino)phenyl]-2,2-dimethyl-2,3,5,6-tetrahydrobenzo[a]]
colony formation in soft agar (SKBR3 cells; 10 μM): inhibits
growth to high density and in low serum (SKBR3 cells; 10 μM): inhibits
reversal of 968-inhibition by cell-permeable analog of α-ketoglutarate (SKBR3 cells; growth in low serum, 10 μM 968 with 7 μM dimethyl α-ketoglutarate): circumvented
inhibition of enzymatic activity of purified GAC [1]: inhibits
mode of inhibition versus glutamine and inorganic phosphate ([1]; 0, 10 or 20 μM): neither competitive versus substrate (glutamine) nor inorganic phosphate
colony formation in soft agar (MDA-MB231 cells): inhibits
growth to high density and in low serum (MDA-MB231 cells): inhibits
